Assay [1] is described as follows: Dissociation constant (Kd) for the equilibrium binding to the monoclonal antibodies DB19/25 which were raised in mice was determined. The arrangement: species or system Mus musculus.
A short description of assay [2]: Dissociation constant (Kd) for the equilibrium binding to the monoclonal antibodies DB19/1 which were raised in mice was determined. The arrangement: species or system Mus musculus.

SMILES strings stand for the structures.

A word on the Kd: it is the equilibrium constant for the complex coming apart. A low value points to a tighter complex.

For the compound `CC(=O)N[C@@H](Cc1ccc(O)cc1)C(=O)N(C)[C@@H](C)C(=O)N[C@@H](Cc1ccc(O)cc1)C(=O)N[C@@H](CC(=O)O)C(=O)N[C@@H](C(=O)N1CCC[C@@H]1C(=O)N[C@H](CC(=O)O)C(=O)N[C@H](Cc1ccc(O)cc1)C(=O)N[C@H](C)C(=O)O)C(C)C`, the values for the Kd in assay [1] and in assay [2] were 600 nM and 4200 nM, respectively.
The matching figures for `CC(=O)N[C@@H](Cc1ccc(O)cc1)C(=O)N1CCC[C@@]1(C)C(=O)N[C@@H](Cc1ccc(O)cc1)C(=O)N[C@@H](CC(=O)O)C(=O)N[C@@H](C(=O)N1CCC[C@@H]1C(=O)N[C@H](CC(=O)O)C(=O)N[C@H](Cc1ccc(O)cc1)C(=O)N[C@H](C)C(=O)O)C(C)C`: 5.7 nM and 3.6 nM.
The matching figures for `CC(=O)N[C@@H](Cc1ccc(O)cc1)C(=O)N1CCC[C@H]1C(=O)N[C@@H](Cc1ccc(O)cc1)C(=O)N[C@@H](CC(=O)O)C(=O)N[C@@H](C(=O)N1CCC[C@@H]1C(=O)N[C@H](CC(=O)O)C(=O)N[C@H](Cc1ccc(O)cc1)C(=O)N[C@H](C)C(=O)O)C(C)C`: 18 nM and 180 nM.
The matching figures for `CC(=O)N[C@@H](Cc1ccc(O)cc1)C(=O)N1CCC[C@H]1C(=O)N[C@@H](Cc1ccc(O)cc1)C(=O)N[C@@H](CC(=O)O)C(=O)N[C@@H](C(=O)N(C)[C@@H](C)C(=O)N[C@H](CC(=O)O)C(=O)N[C@H](Cc1ccc(O)cc1)C(=O)N[C@H](C)C(=O)O)C(C)C`: 38 nM and 88 nM.
